Entries after “also recorded” stand apart in the source; their conditions may differ. Read-outs that look alike come from different tables or passages of the source.
Key:
C57BL/6 mice = assay: Marble burying test (MBT) in mice; type: in vivo, mouse; conditions: 30-minute period, compared to vehicle, FIG. 3
Experimental: Compound 1 produced an anxiolytic-like effect in the marble burying test (MBT) in C57BL/6 mice (FIG. 3).
Animals. Adult male C57BL/6 mice, aged 8-10 weeks (body weight 20-25 g) were used in these experiments. Animals were housed under controlled temperatures and 12-hour light/dark cycles (lights on between 07:00-19:00 h), with ad libitum food and water. This study was carried out in strict accordance with the requirements of the Committee for the Purpose of Control and Supervision of Experiments on Animals (CPCSEA), India. All efforts were made to minimize suffering.
Marble Burying Test (MBT). […] Mice were handled for about 2 min daily for the 3 days prior to the beginning of the experimental procedure. Twenty glass marbles (16 mm diameter) were placed with equal distances in a 5×4 pattern on a 5-cm layer of corn-cob bedding, with marbles at least 2 cm from the borders of the cage. The total number of marbles buried were counted in three 10-minute time bins (total 30 minutes). A marble was considered buried when it was >⅔ covered by bedding material.
Statistical Analysis. The data points shown are the mean±standard error of the mean (SEM). Analysis was performed using GraphPad Prism 6. Comparisons between groups were performed using the one-way analysis of variance (ANOVA), followed by Dunnett's test for comparisons to vehicle. […]

Sprague Dawley rats = assay: Forced swim test (FST) in rats; type: in vivo, rat; conditions: for Time Immobile: rat FST, 10% DMSO in saline; for Time Immobile / effect on immobility in FST: 23.5 hours after a single dose; for effect on immobility in FST: rat
Experimental: Compound 1 induced antidepressant-like effects in the forced swim test (FST) in rats with a 23.5-h pre-treatment time (FIG. 2).
Animals. Male Sprague Dawley rats, aged 9-10 weeks, were used in this experiment. Animals were housed in groups of 2 under controlled temperature (22±3° C.) and relative humidity (30-70%) conditions, with 12-hour light/dark cycles, and with ad libitum food and water. This study was carried out in strict accordance with the requirements of the Committee for the Purpose of Control and Supervision of Experiments on Animals (CPCSEA), India. All efforts were made to minimize suffering.
Forced Swim Test (FST). […] Rats were handled for about 2 min daily for the 5 days prior to the beginning of the experimental procedure. On the first day of the experiment (i.e., Day 0), post randomization, training swim sessions (Swim 1) were conducted between 12:00 and 18:00 h with all animals by placing rats in individual glass cylinders (46 cm tall×20 cm in diameter) containing 23-25° C. water 30 cm deep for 15 minutes. At the conclusion of Swim 1, animals were dried with paper towels, placed in heated drying cages for 15 minutes, and then returned to their home cages. Animals were then administered the appropriate drug or vehicle treatment(s), as described above. For clarity, a compound administration time of 23.5 h before Swim 2 means 0.5 h after the start of Swim 1 and 0.25 h after the completion of Swim 1 (i.e., immediately after return to the home cage). On Day 1 (i.e., 24 h after start of Swim 1), animals performed the test swim (Swim 2) for a period of 5 min but otherwise under the same conditions as Swim 1. During all swim sessions, the water was changed between each animal.
Behavioral scoring was conducted by observers who were blind to the treatment groups. Animals were continuously observed during Swim 2 and the total time spent engaging in the following behaviors was recorded: immobile, swimming, and climbing. A rat was judged to be immobile when it remained floating in the water without struggling and was making only those movements necessary to keep its head above water. A rat was judged to be swimming when it made active swimming motions, more than necessary to merely maintain its head above water (e.g., moving around in the cylinder). A rat was judged to be climbing when it made active movements with its forepaws in and out of the water, usually directed against the walls.
Statistical Analysis. The data points shown represent the mean±standard error of the mean (SEM). Analysis was performed using GraphPad Prism 6. Comparisons between groups were performed using the one-way analysis of variance (ANOVA), followed by Dunnett's test for comparisons to vehicle.
Additional disclosed compounds were tested in the forced swim test (FST) in rats according to the procedure described in Example 58 (compounds 18 and 19 administered in 10% DMSO in saline).

5-HT2B receptor = biological target: T1, 5-HT2B receptor (Homo sapiens, UniProt P41595); assay: 5-HT2B receptor radioligand binding ([3H]LSD); conditions: read-out: 5-HT2B Receptor Ki
T1 construct: expressed in transfected cells; host or cells: HEK293, stably transfected
T1 sequence (P41595 whole entry): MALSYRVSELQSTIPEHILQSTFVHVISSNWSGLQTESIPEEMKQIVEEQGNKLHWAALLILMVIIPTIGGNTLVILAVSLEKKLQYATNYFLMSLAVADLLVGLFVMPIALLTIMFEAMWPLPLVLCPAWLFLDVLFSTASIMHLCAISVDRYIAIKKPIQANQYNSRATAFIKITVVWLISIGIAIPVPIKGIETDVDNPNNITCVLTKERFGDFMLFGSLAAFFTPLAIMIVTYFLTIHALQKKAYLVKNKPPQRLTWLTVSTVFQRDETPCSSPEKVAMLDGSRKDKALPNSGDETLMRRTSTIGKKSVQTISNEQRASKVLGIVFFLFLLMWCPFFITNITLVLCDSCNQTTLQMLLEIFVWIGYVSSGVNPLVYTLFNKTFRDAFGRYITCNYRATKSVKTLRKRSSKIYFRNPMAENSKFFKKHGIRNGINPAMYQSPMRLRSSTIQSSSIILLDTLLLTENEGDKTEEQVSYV

in vitro = in vitro ADME, human; conditions: human, microsomes, role: substrate, metabolite 83 formed in HLM, read-out: Metabolite Formation (percent formation of metabolite 83)
Experimental: The ability of deuteration in compound 68 to attenuate formation of metabolite 83 compared to the same transformation of the non-deuterated compound 18 was also determined.
HLM Stability. Pooled HLM from adult male and female donors (Corning 452117) were used.

With CCCN1C[C@H](C(=O)N(CC)CC)C=C2c3cccc4[nH]cc(c34)C[C@H]21 [Compound 1, (6aR,9R)—N,N-diethyl-7-propyl-4,6,6a,7,8,9-hexahydroindolo[4,3-fg]quinoline-9-carboxamide] the “number of marbles buried” value (C57BL/6 mice) was “reduced the number of marbles buried in a 30-minute period compared to vehicle” and the “immobility time in FST” value (Sprague Dawley rats; highest dose, 23.5 h pre-treatment, relative to vehicle control, FIG. 2) was “reduced immobility time relative to vehicle control”.
With CCN(CC)C(=O)[C@@H]1C=C2c3cccc4[nH]cc(c34)C[C@H]2N(Cc2cccc(OC)c2)C1 [Compound 18, (6aR,9R)—N,N-diethyl-7-(3-methoxybenzyl)-4,6,6a,7,8,9-hexahydroindolo[4,3-fg]quinoline-9-carboxamide] the Ki (5-HT2B receptor) was 188 nM, the metabolised (in vitro; T = 0) was 0.1% and the metabolised (in vitro; T = 5) was 3.4%. The metabolised (in vitro; T = 15) was 6.1%, the metabolised (in vitro; T = 30) was 7.6% and the metabolised (in vitro; T = 45) was 8.1%. The metabolised (in vitro; T = 60) was 8.4%, the “Time Immobile” value (Sprague Dawley rats; 0.1 mg/kg SC) was 56.7 s and the “Time Immobile” value (Sprague Dawley rats; 0.32 mg/kg SC) was 61.2 s. For the same compound, the “effect on immobility in FST” value (Sprague Dawley rats) was “maximal effects equivalent to hallucinogenic compounds and the positive control”.
In the case of CCN(CC)C(=O)[C@@H]1C=C2c3cccc4[nH]cc(c34)C[C@H]2N(Cc2ccc(OC)cc2)C1 [Compound 19, (6aR,9R)—N,N-diethyl-7-(4-methoxybenzyl)-4,6,6a,7,8,9-hexahydroindolo[4,3-fg]quinoline-9-carboxamide], the Ki (5-HT2B receptor) is reported as 225 nM, the “Time Immobile” value (Sprague Dawley rats; 0.1 mg/kg SC) is reported as 76.4 s and the “Time Immobile” value (Sprague Dawley rats; 0.32 mg/kg SC) is reported as 79.2 s. The “Time Immobile” value (Sprague Dawley rats; 1 mg/kg SC) was 96.0 s, the “Time Immobile” value (Sprague Dawley rats; 3.2 mg/kg SC) was 166.5 s and the “effect on immobility in FST” value (Sprague Dawley rats) was “maximal effects equivalent to hallucinogenic compounds and the positive control; also recorded: apparent therapeutic action of compound 19 decreased at higher doses”.
Compound CCN(CC)C(=O)[C@@H]1C=C2c3cccc4[nH]cc(c34)C[C@H]2N(Cc2ccc(F)cc2)C1 [Compound 49, (6aR,9R)—N,N-diethyl-7-(4-fluorobenzyl)-4,6,6a,7,8,9-hexahydroindolo[4,3-fg]quinoline-9-carboxamide] has a Ki (5-HT2B receptor) of 16.9 nM.
With CCN(CC)C(=O)[C@@H]1C=C2c3cccc4[nH]cc(c34)C[C@H]2N(Cc2ccc(Cl)cc2)C1 [Compound 50, (6aR,9R)-7-(4-chlorobenzyl)-N,N-diethyl-4,6,6a,7,8,9-hexahydroindolo[4,3-fg]quinoline-9-carboxamide] the Ki (5-HT2B receptor) was 53.7 nM.
Compound CCN(C)C(=O)[C@@H]1C=C2c3cccc4[nH]cc(c34)C[C@H]2N(Cc2ccccc2)C1 [Compound 85, (6aR,9R)-7-benzyl-N-ethyl-N-methyl-4,6,6a,7,8,9-hexahydroindolo[4,3-fg]quinoline-9-carboxamide] has a Ki (5-HT2B receptor) of 32.4 nM.
